The values that follow come from US10875845B2, “Compounds and methods for the treatment of ocular disorders” (Azura Ophthalmics Ltd., priority 2019, dated 2020).

A short description of data set [1]: Aqueous Hydrolysis Stability Assay. Format: physicochemical. The note with it: at 45 min; 100 μM in 50 mM HEPES pH 7.5 buffer or 1:1 Acetonitrile:Water, room temperature. As to the method:
Determination of aqueous stability of the test compounds was performed using HPLC-MS. A test compound 10 mM stock solution was prepared in DMSO. 10 μl of the DMSO stock solution was dissolved in 990 μl of 50 mM HEPES pH 7.5 buffer or 1:1 (v/v) of Acetonitrile:Water to make a 100 μM solution. Final DMSO concentration was 1%. The solution was kept at room temperature and injected without delay into the LCMS (Waters Xevo TQ-S or Micromass Ultima). Additional injections were performed at appropriate time points.
Half-life (T1/2) of the parent conjugate was calculated using the peak area of the parent conjugate at each time point in the linear region of the log—linear plot.

Data set [2] has as its system Rabbit Cornea Homogenate. The experiment in a line: Rabbit Cornea Homogenate Stability Assay (rabbit cornea esterase assay). The class given is in vitro ADME. Conditions: 37° C. The protocol:
Determining Rabbit Cornea Homogenate stability of the test compounds was performed using HPLC-MS. The assay was performed at two concentrations of Rabbit Cornea Homogenate (0.15 mg/ml and 0.45 mg/ml total protein) so that any hydrolysis observed could be assigned as esterase dependent or not.
Five rabbit corneas (e.g. New Zealand Whites) of approx. 50 mg each were sliced and scraped with a scalpel and tweezers until reduced to small (1-3 mm), thin pieces. These were transferred into a tared vial and accurately weighed, then diluted with 10 volumes aqueous PBS pH7.4
Sample was cooled intermittently on ice and shear homogenized for 3 minutes, then centrifuged for 3 min at 3000 rpm. The supernatant was pipetted off into a vial, and total protein concentration determined at 280 nm. Sample was stored at −78° C.
10 mM Compound stocks were diluted to 100 μM in a 96 deep-well plate: 10 μl of 10 mM Compound stock was added to 990 μl 50 mM HEPES, pH7.5 buffer.
Compounds were further diluted to 10 μM: 100 μl of 100 μM compound was added to 900 μl 50 mM HEPES, pH7.5 buffer.
Esterase homogenate was diluted to 300 ng/μl and 900 ng/μl
A heater shaker was set to 37° C. Into a suitable 96 well plate (Run Plate), 75 μl of 300 or 900 ng/μl esterase homogenate was pipetted into each of the required wells (2 min, 5 min, 10 min, 20 min and 45 min). The plate was sealed and then warmed at 37° C. for 5 min. Another 96 well PCR plate is put on ice (Kill Plate). To this was added 100 μl of MeCN to each well, labelled 0 min, 2 min, 5 min, 10 min, 20 min and 45 min. The plate was covered to minimise evaporation. For the T=0 sample only, to the 100 μl cold MeCN stop solution was added 50 μl of 300 or 900 ng/μl esterase homogenate followed by 50 μl of 10 μM compound solution For the remaining time points, 75 μl of 10 μM compound solution was added to the Run Plate starting from T=45 min row and ending with T=2 min row. At the appropriate time point, 100 μl of the assay mixture was added to the matching kill plate well containing 100 μl of cold MeCN. Samples were analysed as soon as practicable by LCMS (Waters Xevo TQ-S or Micromass Ultima).
Parent conjugate and parent concentrations were determined against appropriate standard response curves and the half-life (T1/2) of the parent conjugate was calculated using the peak area of the parent conjugate at each time point in the linear region of the log—linear plot.

Where [3] appears, read: Cornea Homogenate Conc 0.15 mg/mL.
[4] abbreviates: Cornea Homogenate Conc 0.45 mg/mL.

Consider `CC(OC(=O)CCCC[C@@H]1CCSS1)OC(=O)[C@H](Cc1cccc(S(C)(=O)=O)c1)NC(=O)c1c(Cl)cc2c(c1Cl)CCN(C(=O)c1ccc3ccoc3c1)C2` (stereo partly drawn) [Comp 20, 1-(((S)-2-(2-(benzofuran-6-carbonyl)-5,7-dichloro-1,2,3,4-tetrahydroisoquinoline-6-carboxamido)-3-(3-(methylsulfonyl)phenyl)propanoyl)oxy)ethyl 5-((R)-1,2-dithiolan-3-yl)pentanoate], for which the “Hydrolytic % Lifitegrast formation at [time]” value in data set [1] was “A [45 min] (percent active pharmaceutical ingredient (API) formation<1.5%)”. The “API Formation rate” value in data set [2] (setting [3]) is on record as “a (API formation rate<0.5%/min)”; in data set [2] (setting [4]) it was “b (API formation rate 0.5-1.0%/min)”. In addition, the “Esterase % Lifitegrast formation at 45 min” value in data set [2] (setting [3]) was “A (percent active pharmaceutical ingredient (API) formation<25%)”; in data set [2] (setting [4]), “B (percent API formation 25% to 50%)”.
